Experimental data from patent US20180318311A1, “TRICYCLIC 2-QUINOLINONES AS ANTIBACTERIALS” (priority 2017, published 2018).
≈ marks a conversion by molar mass, not a printed value. Like-named read-outs stand apart in the source and are kept apart here.

Key:
Type in all cases: cell-based
[1] = test system: S. aureus ATCC 49951 (NB01006); assay: MIC by broth microdilution, S. aureus NB01006; settings: Staphylococcus aureus, ATCC49951, CAMHB, 35° C., 20 hours, read-out: Antibacterial activity (MIC) NB01006
Outline: (§1)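 CAMHB, ~5×10^5 CFU/mL, 2-fold serial dilutions (final DMSO 1%), 35° C, ambient air, 20 h. Read OD600 plus visual check; MIC = lowest conc. with no visible growth, μg/mL.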

[2] = test system: S. aureus NB01006-AVR005, gyrA (S84L), grlA (580F) and grlB (E471K); assay: microbe, parasite or virus in culture; settings: Staphylococcus aureus, 20 h, read-out: Antibacterial activity (MIC) NB01006-AVR005
Outline: as §1

[3] = test system: S. aureus NB01080 fluoroquinolone-resistant clinical isolate; assay: MIC by broth microdilution, S. aureus NB01080; settings: Staphylococcus aureus, CAMHB, 35° C., 20 hours, read-out: Antibacterial activity (MIC) NB01080
Outline: as §1

[4] = test system: E. faecalis ATCC 29212 (NB04001); assay: MIC by broth microdilution, E. faecalis NB04001; settings: Enterococcus faecalis, ATCC29212, CAMHB, 35° C., 20 hours, read-out: Antibacterial activity (MIC) NB04001
Outline: as §1

[5] = test system: S. pneumoniae ATCC 25922 (NB07001); assay: MIC by broth microdilution, S. pneumoniae NB07001; settings: Streptococcus pneumoniae, read-out: Antibacterial activity (MIC) NB07001
Outline: as §1

[6] = test system: E. coli ATCC 25922 (NB27001); assay: MIC by broth microdilution, E. coli NB27001; settings: Escherichia coli, ATCC25922, CAMHB, 35° C., 20 hours, read-out: Antibacterial activity (MIC) NB27001
Outline: as §1

[7] = test system: P. aeruginosa NB52019, wild-type PAO1 strain; assay: MIC by broth microdilution, P. aeruginosa NB52019; settings: Pseudomonas aeruginosa, CAMHB, 35° C., 20 hours, read-out: Antibacterial activity (MIC) NB52019
Outline: as §1

[8] = ATCC25922, S. pneumoniae, CAMHB supplemented with 5% lysed horse blood, 35° C., 20 hours

SMILES	MIC [1] [mg/L]	MIC [2] [mg/L]	MIC [3] [mg/L]	MIC [4] [mg/L]	MIC ([5]; ATCC25922, 20 h) [mg/L]	MIC [6] [mg/L]	MIC [7] [mg/L]	MIC [5, 8] [mg/L]
CO/N=C1\CN(c2c(F)cc3cc(C(=O)O)c(=O)n4c3c2OC[C@@H]4C)CC1CN (stereo partly drawn) [Example 1.40, (3S)-10-((Z)-3-(aminomethyl)-4-(methoxyimino)pyrrolidin-1-yl)-9-fluoro-3-methyl-5-oxo-2,3-dihydro-5H-[1,4]oxazino[2,3,4-ij]quinoline-6-carboxylic acid]	1 to 32 (≈ 2.47 to 79.1 µM)	1 to 32 (≈ 2.47 to 79.1 µM)	1 to 32 (≈ 2.47 to 79.1 µM)	1 to 32 (≈ 2.47 to 79.1 µM)	< 1	1 to 32 (≈ 2.47 to 79.1 µM)	> 32	
CNC[C@@H]1CCN(c2c(F)cc3cc(C(=O)O)c(=O)n4c3c2OC[C@@H]4C)C1 [Example 1.41, (S)-9-fluoro-3-methyl-10-((S)-3-((methylamino)methyl)pyrrolidin-1-yl)-5-oxo-2,3-dihydro-5H-[1,4]oxazino[2,3,4-ij]quinoline-6-carboxylic acid]	< 1	1 to 32 (≈ 2.66 to 85.2 µM)	1 to 32 (≈ 2.66 to 85.2 µM)	1 to 32 (≈ 2.66 to 85.2 µM)	< 1	1 to 32 (≈ 2.66 to 85.2 µM)	> 32	
CC(O)C1(F)CCN(c2c(F)cc3cc(C(=O)O)c(=O)n4c3c2OC[C@@H]4C)C1 (stereo partly drawn) [Example 1.44, (3S)-9-fluoro-10-(3-fluoro-3-(1-hydroxyethyl)pyrrolidin-1-yl)-3-methyl-5-oxo-2,3-dihydro-5H-[1,4]oxazino[2,3,4-ij]quinoline-6-carboxylic acid]	< 1	> 32	> 32	1 to 32 (≈ 2.54 to 81.1 µM)	1 to 32 (≈ 2.54 to 81.1 µM)	1 to 32 (≈ 2.54 to 81.1 µM)	> 32	
C[C@H]1COc2c(N3C[C@H]4[C@@H](C3)S(=O)(=O)C[C@@H]4N)c(F)cc3cc(C(=O)O)c(=O)n1c23 [Example 1.51, (S)-10-((3R,3aR,6aS)-3-amino-1,1-dioxidohexahydro-5H-thieno[2,3-c]pyrrol-5-yl)-9-fluoro-3-methyl-5-oxo-2,3-dihydro-5H-[1,4]oxazino[2,3,4-ij]quinoline-6-carboxylic acid]	> 32	> 32	> 32	> 32	> 32	> 32	> 32	
C[C@H]1COc2c(N3CC[C@@H]([C@@H](N)C4CC4)C3)c(F)cc3cc(C(=O)O)c(=O)n1c23 [Example 1.52, (S)-10-((R)-3-((S)-amino(cyclopropyl)methyl)pyrrolidin-1-yl)-9-fluoro-3-methyl-5-oxo-2,3-dihydro-5H-[1,4]oxazino[2,3,4-ij]quinoline-6-carboxylic acid]	< 1	1 to 32 (≈ 2.49 to 79.7 µM)	< 1	< 1	< 1	< 1	> 32	
C[C@H]1COc2c(N3CC[C@@H]([C@@H](N)C(F)F)C3)c(F)cc3cc(C(=O)O)c(=O)n1c23 [Example 1.53, (S)-10-((R)-3-((R)-1-amino-2,2-difluoroethyl)pyrrolidin-1-yl)-9-fluoro-3-methyl-5-oxo-2,3-dihydro-5H-[1,4]oxazino[2,3,4-ij]quinoline-6-carboxylic acid]	< 1	1 to 32 (≈ 2.43 to 77.8 µM)	< 1	< 1	< 1	1 to 32 (≈ 2.43 to 77.8 µM)	> 32	
C[C@H]1COc2c(N3CCCN(CC(F)F)CC3)c(F)cc3cc(C(=O)O)c(=O)n1c23 [Example 1.54, (S)-10-(4-(2,2-difluoroethyl)-1,4-diazepan-1-yl)-9-fluoro-3-methyl-5-oxo-2,3-dihydro-5H-[1,4]oxazino[2,3,4-ij]quinoline-6-carboxylic acid]	1 to 32 (≈ 2.35 to 75.2 µM)	> 32	> 32	> 32	> 32	> 32	> 32	
C[C@H]1COc2c(N3CCNC4(CC3)CC4)c(F)cc3cc(C(=O)O)c(=O)n1c23 [Example 1.55, (S)-9-fluoro-3-methyl-5-oxo-10-(4,7-diazaspiro[2.6]nonan-7-yl)-2,3-dihydro-5H-[1,4]oxazino[2,3,4-ij]quinoline-6-carboxylic acid]	1 to 32 (≈ 2.58 to 82.6 µM)	> 32	1 to 32 (≈ 2.58 to 82.6 µM)	1 to 32 (≈ 2.58 to 82.6 µM)	1 to 32 (≈ 2.58 to 82.6 µM)	1 to 32 (≈ 2.58 to 82.6 µM)	> 32	
C[C@H]1COc2c(N3CC[C@@H]([C@@H](N)CF)C3)c(F)cc3cc(C(=O)O)c(=O)n1c23 [Example 1.56, (S)-10-((R)-3-((R)-1-amino-2-fluoroethyl)pyrrolidin-1-yl)-9-fluoro-3-methyl-5-oxo-2,3-dihydro-5H-[1,4]oxazino[2,3,4-ij]quinoline-6-carboxylic acid]	< 1	1 to 32 (≈ 2.54 to 81.3 µM)	< 1	< 1	< 1	< 1	1 to 32 (≈ 2.54 to 81.3 µM)	
C[C@H]1COc2c(N3CCC4(CCCN4C)CC3)c(F)cc3cc(C(=O)O)c(=O)n1c23 [Example 1.57, (S)-9-fluoro-3-methyl-10-(1-methyl-1,8-diazaspiro[4.5]decan-8-yl)-5-oxo-2,3-dihydro-5H-[1,4]oxazino[2,3,4-ij]quinoline-6-carboxylic acid]	> 32	> 32	> 32	> 32	> 32	1 to 32 (≈ 2.41 to 77 µM)	> 32	
C[C@@H]1CN(c2c(F)cc3cc(C(=O)O)c(=O)n4c3c2OC[C@@H]4C)C[C@@]1(C)CN [Example 1.58, (S)-10-((3R,4S)-3-(aminomethyl)-3,4-dimethylpyrrolidin-1-yl)-9-fluoro-3-methyl-5-oxo-2,3-dihydro-5H-[1,4]oxazino[2,3,4-ij]quinoline-6-carboxylic acid]	< 1	1 to 32 (≈ 2.57 to 82.2 µM)	1 to 32 (≈ 2.57 to 82.2 µM)	1 to 32 (≈ 2.57 to 82.2 µM)	1 to 32 (≈ 2.57 to 82.2 µM)	1 to 32 (≈ 2.57 to 82.2 µM)	> 32	
C[C@H]1COc2c(N3CC4=C(CNC4)C3)c(F)cc3cc(C(=O)O)c(=O)n1c23 [Example 1.59, (S)-9-fluoro-3-methyl-5-oxo-10-(3,4,5,6-tetrahydropyrrolo[3,4-c]pyrrol-2(1H)-yl)-2,3-dihydro-5H-[1,4]oxazino[2,3,4-ij]quinoline-6-carboxylic acid]	1 to 32 (≈ 2.69 to 86.2 µM)	> 32	1 to 32 (≈ 2.69 to 86.2 µM)	> 32	1 to 32 (≈ 2.69 to 86.2 µM)	1 to 32 (≈ 2.69 to 86.2 µM)	> 32	
C[C@H]1COc2c(N3CCN4CCC3C4)c(F)cc3cc(C(=O)O)c(=O)n1c23 (stereo partly drawn) [Example 1.60, (3S)-10-(1,4-diazabicyclo[3.2.1]octan-4-yl)-9-fluoro-3-methyl-5-oxo-2,3-dihydro-5H-[1,4]oxazino[2,3,4-ij]quinoline-6-carboxylic acid]	1 to 32 (≈ 2.68 to 85.7 µM)	> 32	> 32	1 to 32 (≈ 2.68 to 85.7 µM)	1 to 32 (≈ 2.68 to 85.7 µM)	1 to 32 (≈ 2.68 to 85.7 µM)	1 to 32 (≈ 2.68 to 85.7 µM)	
C[C@H]1COc2c(N3C4CCC3CC4)c(F)cc3cc(C(=O)O)c(=O)n1c23 [Example 1.61, (S)-10-(7-azabicyclo[2.2.1]heptan-7-yl)-9-fluoro-3-methyl-5-oxo-2,3-dihydro-5H-[1,4]oxazino[2,3,4-ij]quinoline-6-carboxylic acid]	> 32	> 32	> 32	> 32		> 32	> 32	> 32
C[C@H]1COc2c(N3CCN4C5CCC(C5)C4C3)c(F)cc3cc(C(=O)O)c(=O)n1c23 (stereo partly drawn) [Example 1.63, (3S)-9-fluoro-3-methyl-10-(octahydro-2H-6,9-methanopyrido[1,2-a]pyrazin-2-yl)-5-oxo-2,3-dihydro-5H-[1,4]oxazino[2,3,4-ij]quinoline-6-carboxylic acid]	> 32	> 32	> 32	> 32		1 to 32 (≈ 2.42 to 77.4 µM)	> 32	> 32
C[C@H]1COc2c(N3CC4CCCC(C3)N4)c(F)cc3cc(C(=O)O)c(=O)n1c23 [Example 1.66, (3S)-10-(3,9-diazabicyclo[3.3.1]nonan-3-yl)-9-fluoro-3-methyl-5-oxo-2,3-dihydro-5H-[1,4]oxazino[2,3,4-ij]quinoline-6-carboxylic acid]	1 to 32 (≈ 2.58 to 82.6 µM)	> 32	> 32	> 32		1 to 32 (≈ 2.58 to 82.6 µM)	> 32	1 to 32 (≈ 2.58 to 82.6 µM)
C[C@H]1COc2c(N3CCC(N)(CO)CC3)c(F)cc3cc(C(=O)O)c(=O)n1c23 [Example 1.67, (S)-10-(4-amino-4-(hydroxymethyl)piperidin-1-yl)-9-fluoro-3-methyl-5-oxo-2,3-dihydro-5H-[1,4]oxazino[2,3,4-ij]quinoline-6-carboxylic acid]	> 32	> 32	> 32	> 32	> 32	> 32	> 32	
